Values quoted from earlier work as cited in patent US10159714B2, “Compositions, devices and methods of use thereof for the treatment of cancers” (Intarcia Therapeutics, Inc., priority 2011, dated 2018).
Where no end group is shown, it is not given here.

Columns and labels:
[1] = tested on: prostatic tumors in Noble and Dunning male rats and DMBA-induced mammary tumors in female rats; details: hormone-dependent tumors in rats
[2] = tested on: gonadotropin secretion / testosterone
[3] = tested on: fasting hyperglycemia; details: type 2 diabetic patients

Compound | tumor growth [1] | time to decrease of LH, FSH and testosterone after initiation of treatment ([2]; continuous administration) | oral activity ([2]; in vivo, po) | testosterone level ([2]; males, continuous administration) | effect on fasting hyperglycemia [3]
CCNC(=O)[C@@H]1CCCN1C(=O)[C@H](CCCNC(=N)N)NC(=O)[C@H](CC(C)C)NC(=O)[C@@H](CC(C)C)NC(=O)[C@H](Cc1ccc(O)cc1)NC(=O)[C@H](CO)NC(=O)[C@H](Cc1c[nH]c2ccccc12)NC(=O)[C@H](Cc1c[nH]cn1)NC(=O)[C@@H]1CCC(=O)N1 [leuprolide acetate] | inhibition of the growth | two to six | not active when given orally | reduced to castrate levels | –
GLP-1(7-37) (HAEGTFTSDVSSYLEGQAAKEFIAWLVKGRG; Glucagon-like peptide 1(7-37); UniProt P01275 98-128, looked up) [form of the GLP-1 peptide] | – | – | – | – | normalize fasting hyperglycemia
glucagon-like peptide-1 (7-36) amide (HAEGTFTSDVSSYLEGQAAKEFIAWLVKGR-NH2; listed as Homo sapiens) [GLP-1(7-36)amide] | – | – | – | – | normalize fasting hyperglycemia
